Measurements published in patent publication EP0748792A1 (priority 1994, dated 1995).

What was measured:
[1] = tested on: total acetylating capability of the organism; assay: Acetylating capability of white rats (sodium sulfacyl acetylation, arylamine content in urine); format: in vivo; conditions: agent 20 mg/kg i.p. 4 days; for Acetylating properties of the organism: Na sulfacyl acetylating in the organism of rats; for Sulfacyl isolation M ± m In acetylated form / Sulfacyl isolation M ± m In free form / Sulfacyl isolation M ± m Total: Na sulfacyl excretion in urine; for % of excretion from the dose In acetylated form / % of excretion from the dose In free form / Concentration in urine In acetylated form / Concentration in urine In free form: Na sulfacyl; for Excretion % from the dose: total Na sulfacyl excretion in urine
Protocol: It is known that intact animals, receiving sufficient doses of pantothenic acid, have accelerated reactions of arylamine biotransformation. Therefore, there is the possibility to regulate the acetylating processes in the bodies of people and animals. In the examples given below the total acetylating capability of the organism was assessed using the method of quantitative determination of the arylamine content in the urine examined.
As a subject for acetylating, aromatic amines were chosen, as their usage makes it possible to assess both the activity of N-acetylamine transferase and (indirectly) the content of acetyl CoA.
As a subject for examination sodium sulfacyl was chosen. […] 14 animals were included in each group. The examined agent was injected intraperitoneally at a dose of 20 mg/kg. On the 4th day, 4 hours after the last injection of the examined agent, the sodium sulfacyl solution in a dose of 20 mg/kg was injected intraperitoneally. All the rats were separated into exchangeable cages for urine gathering. The collected data were compared with the control groups of animals (group I - only sodium sulfacyl in a dose of 20 mg/kg, and group II - calcium pantothenate).

white non-linear mice [2] = conditions: administered perorally; species not given; cited from earlier work
non-linear white rats = assay: Subchronic toxicity in rats (2 months); format: in vivo
Protocol: 70 non-linear white rats of both sexes with average stated mass of 72 ± 5 g, divided into 7 groups, were used in the experiment. The first three groups of animals received ketopantothenate in 0.2 ml of distilled water in doses: 13.2 mg/kg (therapeutic dose of calcium D-pantothenate), 132 and 264 mg/kg (doses 10 and 20 times larger than the therapeutic dose) internally every day during the experiment. The next three groups of animals received the same doses of calcium D-pantothenate under the same conditions for comparison. The 7th group was the control one and included intact animals. The weighing of the animals was carried out once a week. Permanent observation on development and state of rats was carried out. […] The growth of the mass of the rats receiving ketopantothenate in different doses was 3.7 - 6.0 % higher than the growth of the mass of rats from the control group (correspondingly to doses). The growth of the mass of the rats receiving calcium D-pantothenate in comparison with the control group was approximately the same.
When the experiment was over the animals were slaughtering and the internal organs were examined visually.

white non-linear mice [3] = assay: Acute toxicity in mice; format: in vivo
Protocol: The animals were distributed into 7 groups, 6 animals in each group.
The mice were under observation for 14 days. Starting from the dose of 6g/kg in the first 2 hours after the agent administration the intoxication symptoms were observed: inertia, quickened breathing. Then these symptoms passed without consequences. The mice in all groups were practically healthy, no deviations in the state and behavior of the animals were observed.

Molecule | Acetylating properties of the organism [1] | Sulfacyl isolation M ± m In acetylated form ([1]; sulfacyl 20 mg/kg i.p.) | Sulfacyl isolation M ± m In free form ([1]; sulfacyl 20 mg/kg i.p.) | Sulfacyl isolation M ± m Total ([1]; sulfacyl 20 mg/kg i.p.) | % of excretion from the dose In acetylated form ([1]; rats) | % of excretion from the dose In free form ([1]; rats) | Concentration in urine In acetylated form ([1]; rats) | Concentration in urine In free form ([1]; rats) | Excretion % from the dose [1] | Mass Final (non-linear white rats; rat, in vivo, 13.2 mg/kg) | Mass growth during the experiment (non-linear white rats; rat, in vivo, 13.2 mg/kg) | Mass growth during the experiment % to the control (non-linear white rats; rat, in vivo, 13.2 mg/kg) | Mass Final (non-linear white rats; rat, in vivo, 132 mg/kg) | Mass growth during the experiment (non-linear white rats; rat, in vivo, 132 mg/kg) | Mass growth during the experiment % to the control (non-linear white rats; rat, in vivo, 132 mg/kg) | Mass Final (non-linear white rats; rat, in vivo, 264 mg/kg) | Mass growth during the experiment (non-linear white rats; rat, in vivo, 264 mg/kg) | Mass growth during the experiment % to the control (non-linear white rats; rat, in vivo, 264 mg/kg) | further results
CC(C)(CO)[C@@H](O)C(=O)NCCC(=O)O [Ca D-pantothenate, calcium D-pantothenate, reference compound] | 24.0 | 0.67 ± 0.04 | 2.12 ± 0.09 | 2.79 ± 0.19 | 22.3 ± 1.8% | 70.7 ± 6.0% | 0.172 mg/mL | 0.54 mg/mL | 93.0% | 187.5 ± 18.4 | 117.2 ± 7.7 g | 104.2% | 193.0 ± 14.6 | 118.7 ± 10.4 g | 105.3% | 186.1 ± 16.2 | 114.9 ± 8.8 g | 102.2% | LD50 (white non-linear mice [2]): 5.92 g/kg
calcium ketopantothenate [Ca ketopantothenate] | 25.9 | 0.73 ± 0.05 | 2.09 ± 0.17 | 2.82 ± 0.19 | 23.1 ± 1.8% | 66.1 ± 3.2% | 0.221 mg/mL | 0.63 mg/mL | 89.2% | 187.6 ± 12.5 | 116.6 ± 8.2 g | 103.7% | 193.6 ± 17.3 | 119.3 ± 10.3 g | 106.0% | 190.1 ± 21.0 | 117.6 ± 11.0 g | 104.5% | total acetylating capability of the organism of white rats (N-acetylation of aromatic amines) ([1]; rats): increased significantly; excretion of acetylated product in comparison with the control group ([1]; rats, sulfacyl 20 mg/kg i.p.): tripled; excretion of free product, lower than the control group ([1]; rats, sulfacyl 20 mg/kg i.p.): 10%; irritation of internal organs (visual examination) (non-linear white rats; rat, in vivo): No irritation; toxicity when used over a prolonged period (non-linear white rats; rats, 13.2, 132 and 264 mg/kg internally every day, 2 months): not toxic; dose from which intoxication symptoms (inertia, quickened breathing) were observed (white non-linear mice [3]; mice, single internal dose, first 2 hours after administration, symptoms passed without consequences): ≥ 6 g/kg; dose that was not toxic (white non-linear mice [3]; mouse, in vivo, po, 336 h): 8.0 g/kg
